Test results reported in US20190350887A1, “INCREASING BIOAVAILABILITY OF IRON WITH AVENANTHRAMIDE 2c” (priority 2018, published 2019).

Tested on: Caco-2 cells
Test: in vitro Caco-2 cell bioassay of iron bioavailability (ferritin formation)
Type: cell-based
Details: for effect on iron bioavailability: same testing conditions as avenanthramide 2c (FIG. 1)
Description: FIG. 1 is a graph illustrating the results of in vitro tests that were performed in order to predict the effect that avenanthramide 2c, avenanthramide 2p, and avenanthramide 2f would have on iron bioabsorption in humans. Specifically, an in vitro Caco-2 cell bioassay was used that accurately predicts how a compound will influence iron bioabsorption in humans. In these cells, the intracellular iron storage protein known as ferritin forms in direct proportion to cell iron uptake.
[…] The ferric chloride solution is administered to the cells by itself (as a control) and along with the compound(s) being tested to assess their effect iron bioavailability, as measured by the amount of ferritin formed in the cells—a sensitive and accurate measurement of cell iron uptake. The test protocol measures the total weight of cell protein and the total weight of ferritin produced by the cells in order to generate a weight ratio of ferritin to cell protein (in units of ng ferritin formed per mg cell protein). The ratios from the test samples are compared against a control sample wherein only ferric chloride is administered to the cells. Test samples with higher ferritin values (ng ferritin/mg cell protein) compared to the control indicate improvement or enhancement of iron bioavailability, whereas test samples with ferritin values approximately equal to (or within the margin of error) or less than the control indicates no effect on iron bioavailability or inhibition of iron bioavailability, respectively.

Row | SMILES | effect on iron bioavailability | iron bioavailability (ferritin formation) compared with control (5 μM avenanthramide with 10 μM ferric chloride, control = ferric chloride only) | ferritin formation relative to control (20 μM avenanthramide with 10 μM ferric chloride) | ferritin formation, increase over the 5 μM sample (20 μM avenanthramide with 10 μM ferric chloride, relative to 5 μM sample) | ferritin value compared with control and lower concentrations (30 μM avenanthramide with 10 μM ferric chloride)
1 | O=C(/C=C/c1ccc(O)cc1)Nc1ccc(O)cc1C(=O)O [avenanthramide 2p, 5-hydroxy-2-[[(E)-3-(4-hydroxyphenyl)prop-2-enoyl]amino]benzoic acid, reference compound] | negligible or zero effect | – | – | – | –
2 | COc1cc(/C=C/C(=O)Nc2ccc(O)cc2C(=O)O)ccc1O [avenanthramide 2f, 5-hydroxy-2-[[(E)-3-(4-hydroxy-3-methoxyphenyl)prop-2-enoyl]amino]benzoic acid, reference compound] | negligible or zero effect | – | – | – | –
3 | O=C(/C=C/c1ccc(O)c(O)c1)Nc1ccc(O)cc1C(=O)O [avenanthramide 2c, 2-[[(E)-3-(3,4-dihydroxyphenyl)prop-2-enoyl]amino]-5-hydroxybenzoic acid] | – | more than double the control value | more than 3.5 times the control value | more than 1.5 factor | still above the values measured at 10 μM and 5 μM, and well above control
